Read-outs that look alike come from different tables or passages of the source.

The test system of one assay is A2780 cells. Kind of assay: In-Vitro Cell Proliferation Assay (SRB).
The target in the next assay is NAMPT (Homo sapiens (Human), UniProt P43490). The assay is described as follows: Biochemical Inhibition Assay (NAMPT enzymatic reaction, NMN quantified by mass spectrometry). Conditions: 33 nM recombinant His-tagged NAMPT, 1 μM NAM, 30 min at rt. The method, then: Assay 1: Biochemical Inhibition Assay
Chain of NAMPT (P43490 whole entry): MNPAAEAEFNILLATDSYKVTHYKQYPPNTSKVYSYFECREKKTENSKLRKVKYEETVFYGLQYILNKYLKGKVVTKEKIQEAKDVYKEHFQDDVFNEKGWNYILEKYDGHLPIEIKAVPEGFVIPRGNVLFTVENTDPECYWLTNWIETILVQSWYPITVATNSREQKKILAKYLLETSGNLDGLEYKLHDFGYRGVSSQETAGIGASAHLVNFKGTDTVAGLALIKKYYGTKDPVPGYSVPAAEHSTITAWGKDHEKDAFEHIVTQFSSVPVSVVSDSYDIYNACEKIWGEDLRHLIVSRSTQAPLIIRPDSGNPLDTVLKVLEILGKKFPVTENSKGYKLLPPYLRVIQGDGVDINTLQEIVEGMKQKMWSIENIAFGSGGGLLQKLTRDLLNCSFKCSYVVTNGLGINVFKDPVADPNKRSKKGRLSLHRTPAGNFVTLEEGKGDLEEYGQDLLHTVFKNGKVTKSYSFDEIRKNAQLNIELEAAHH
NAMPT protein purification. Recombinant His-tagged NAMPT was produced in E. coli cells, purified over a Ni column, and further purified over a size-exclusion column by XTAL Biostructures.
The NAMPT Enzymatic Reaction. The NAMPT enzymatic reactions were carried out in Buffer A (50 mM Hepes pH 7.5, 50 mM NaCl, 5 mM MgCl2, and 1 mM THP) in 96-well V-bottom plates. The compound titrations were performed in a separate dilution plate by serially diluting the compounds in DMSO to make a 100× stock. […] The compound and enzyme mixture was incubated for 15 min at rt, then 10 μL of 10× substrate and co-factors in Buffer A were added to the test well to make a final concentration of 1 μM NAM, […] 5-Phospho-D-ribose 1-diphosphate (PRPP), and 2.5 mM Adenosine 5′-triphosphate (ATP). The reaction was allowed to proceed for 30 min at rt, then was quenched with the addition of 11 μL of a solution of formic acid and L-Cystathionine to make a final concentration of 1% formic acid and 10 μM L-Cystathionine. Background and signal strength was determined by addition (or non-addition) of a serial dilution of NMN to a pre-quenched enzyme and cofactor mix.
Quantification of NMN. A mass spectrometry-based assay was used to measure the NAMPT reaction product, β-nicotinamide mononucleotide (NMN), and the internal control (L-Cystathionine). NMN and L-Cystathionine were detected using the services of Biocius Lifesciences with the RapidFire system. In short, the NMN and L-Cystathionine were bound to a graphitic carbon cartridge in 0.1% formic acid, eluted in 30% acetonitrile buffer, and injected into a Sciex 4000 mass spectrometer. The components of the sample were ionized with electrospray ionization and the positive ions were detected. […] The fragments are quantified and the analyzed by the following method.
Determination of IC50 Values. First, the NMN signal was normalized to the L-Cystathionine signal by dividing the NMN signal by the L-Cystathionine signal for each well. The signal from the background wells were averaged and subtracted from the test plates.

Where [1] appears, read: Homo sapiens, A2780, 72 h, read-out: Cell Proliferation (IC50), A2780 cells, 72 h, sulforhodamine B.
[2] abbreviates: Homo sapiens, A2780, 72 h, read-out: Cell Proliferation (IC50).
The mark [3] stands for this setting: read-out: Cell Proliferation (IC50), A2780 cells, 72 h, sulforhodamine B.

Consider `O=C(NCc1ccc(S(=O)(=O)c2ccc(N3CCOCC3)cc2)cn1)c1ccc2nccn2c1` [Example 30, Imidazo[1,2-a]pyridine-6-carboxylic acid (5-(4-morpholin-4-yl-benzenesulfonyl)-pyridin-2-ylmethyl]-amide], for which the IC50 came to 1.6 nM in the assay with A2780 cells (setting [1]) and 7.2 nM on NAMPT.

On to `O=C(NCc1ccc(S(=O)(=O)N2CCN(C3CCOCC3)CC2)cn1)N1Cc2ccncc2C1` [Example 126, N-[[5-(4-tetrahydropyran-4-ylpiperazin-1-yl)sulfonyl-2-pyridyl]methyl]-1,3-dihydropyrrolo[3,4-c]pyridine-2-carboxamide], for which the IC50 came out at 56 nM in the assay on A2780 cells (setting [2]) and 68.4 nM on NAMPT.

Regarding `O=C(NCc1ccc(S(=O)(=O)C2CCN(C3CCOCC3)CC2)cn1)c1cc2ccncc2o1` [Example 105, Furo[2,3-c]pyridine-2-carboxylic acid {5-[1-(tetrahydro-pyran-4-yl)-piperidine-4-sulfonyl]-pyridin-2-ylmethyl)-amide], in the assay with A2780 cells (setting [1]), the IC50 was determined as 28.6 nM.

As to `O=C(NCc1ccc(S(=O)(=O)c2cncc(C(F)(F)F)c2)cn1)N1Cc2ccncc2C1` [Example 170, N-[[5-[[5-(trifluoromethyl)-3-pyridyl]sulfonyl]-2-pyridyl]methyl]-1,3-dihydropyrrolo[3,4-c]pyridine-2-carboxamide], the IC50 is 25.4 nM with A2780 cells (setting [2]) and 49.1 nM at NAMPT.

For the compound `O=C(NCc1ccc(S(=O)(=O)C2CCN(C3COC3)CC2)cn1)c1cc2ccncc2s1` [Example 56, Thieno[2,3-c]pyridine-2-carboxylic acid [5-(1-oxetan-3-yl-piperidine-4-sulfonyl)-pyridin-2-ylmethyl]-amide], the IC50 stood at 15.1 nM in the assay on A2780 cells (setting [2]) and 25.9 nM on NAMPT.

On to `O=C(NCc1ccc(S(=O)(=O)N2CCN(C3CCOCC3)CC2)cn1)c1cc2ccncc2o1` [Example 127, N-[[5-(4-tetrahydropyran-4-ylpiperazin-1-yl)sulfonyl-2-pyridyl]methyl]furo[2,3-c]pyridine-2-carboxamide], for which the IC50 amounted to 31.3 nM in the assay on A2780 cells (setting [2]) and 49.2 nM on NAMPT.

Consider `CC(C)n1cc(S(=O)(=O)c2ccc(CNC(=O)N3Cc4ccncc4C3)nc2)cn1` [Example 80, 1,3-Dihydro-pyrrolo[3,4-c]pyridine-2-carboxylic acid [5-(1-isopropyl-1H-pyrazole-4-sulfonyl)-pyridin-2-ylmethyl]-amide], for which the IC50 in the assay on A2780 cells (setting [2]) is 83.2 nM; at NAMPT, 22.7 nM.

`O=C(NCc1ccc(S(=O)(=O)C2CCN(C3CCOCC3)CC2)cn1)c1cc2cnccc2[nH]1` [Example 42, 1H-Pyrrolo[3,2-c]pyridine-2-carboxylic acid {5-[1-(tetrahydro-pyran-4-yl)-piperidine-4-sulfonyl]-pyridin-2-ylmethyl)-amide]: the IC50 stood at 86.3 nM in the assay with A2780 cells (setting [2]) and 249 nM at NAMPT.

For the compound `O=C(NCc1ccc([S+]([O-])c2cc(F)cc(F)c2)cn1)c1cc2cnccc2[nH]1` (racemic) [Example 9, 1H-Pyrrolo[3,2-c]pyridine-2-carboxylic acid [5-(3,5-difluoro-benzenesulfinyl)-pyridin-2-ylmethyl]-amide (racemic)], the IC50 in the assay on A2780 cells (setting [2]) turned out to be 209 nM; at NAMPT, 55.3 nM.

For the compound `CCCn1cc(S(=O)(=O)c2ccc(CNC(=O)c3cc4cnccc4[nH]3)nc2)cn1` [Example 171, N-[[5-(1-propylpyrazol-4-yl)sulfonyl-2-pyridyl]methyl]-1H-pyrrolo[3,2-c]pyridine-2-carboxamide], the figures for the IC50 in the assay on A2780 cells (setting [1]) and on NAMPT were 51.2 nM and 62 nM, respectively.

Turning to `O=C(NCc1ccc([S+]([O-])c2cc(F)cc(F)c2)cn1)c1ccc2nccn2c1` (racemic) [Example 14, Imidazo[1,2-a]pyridine-6-carboxylic acid [5-(3,5-difluoro-benzenesulfinyl)-pyridin-2-ylmethyl)-amide (racemic)], the IC50 is 51.3 nM in the assay on A2780 cells (setting [3]) and 36.5 nM at NAMPT.

For the compound `CCN(C)c1ncc(S(=O)(=O)c2ccc(CNC(=O)c3cc4ccncc4o3)nc2)s1` [Example 146, N-[[5-[2-[ethyl(methyl)amino]thiazol-5-yl]sulfonyl-2-pyridyl]methyl]furo[2,3-c]pyridine-2-carboxamide], in the assay with A2780 cells (setting [1]), the IC50 is 3.03 nM.

Regarding `O=C(NCc1ccc(S(=O)(=O)c2ccc(N3CCOCC3)cc2)cn1)N1Cc2ccncc2C1` [Example 97, 1,3-Dihydro-pyrrolo[3,4-c]pyridine-2-carboxylic acid [5-(4-morpholin-4-yl-benzenesulfonyl)-pyridin-2-ylmethyl]-amide], the IC50 with A2780 cells (setting [1]) was determined as 4.23 nM.

Consider `CCCn1cc(S(=O)(=O)c2ccc(CNC(=O)N3Cc4ccncc4C3)nc2)cn1` [Example 140, N-[[5-(1-propylpyrazol-4-yl)sulfonyl-2-pyridyl]methyl]-1,3-dihydropyrrolo[3,4-c]pyridine-2-carboxamide], for which the IC50 with A2780 cells (setting [1]) came out at 37.2 nM.

As to `O=C(NCc1ncc(S(=O)(=O)c2ccccc2)cn1)c1cc2ccncc2o1` [Example 11, Furo[2,3-c]pyridine-2-carboxylic acid (5-benzenesulfonyl-pyrimidin-2-ylmethyl)-amide], the IC50 in the assay with A2780 cells (setting [2]) is 314 nM.

As for `O=C(NCc1ccc(S(=O)(=O)c2cccc(OC(F)(F)F)c2)cn1)c1cnc2[nH]ncc2c1` [Example 19, 1H-Pyrazolo[3,4-b]pyridine-5-carboxylic acid [5-(3-trifluoromethoxy-benzenesulfonyl)-pyridin-2-ylmethyl]-amide], the IC50 with A2780 cells (setting [1]) amounted to 28.3 nM.

On to `O=C(NCc1ccc(S(=O)(=O)C2CCN(C3COC3)CC2)cn1)c1cc2ccncc2o1` [Example 103, Furo[2,3-c]pyridine-2-carboxylic acid [5-(1-oxetan-3-yl-piperidine-4-sulfonyl)-pyridin-2-ylmethyl]-amide], for which the IC50 in the assay with A2780 cells (setting [1]) turned out to be 38.9 nM.

With `COc1cc(F)cc(S(=O)(=O)c2ccc(CNC(=O)c3cnc4[nH]ncc4c3)nc2)c1` [Example 144, N-[[5-(3-fluoro-5-methoxy-phenyl)sulfonyl-2-pyridyl]methyl]-1H-pyrazolo[3,4-b]pyridine-5-carboxamide], the IC50 in the assay on A2780 cells (setting [1]) was determined as 41.5 nM.

As to `CN1CCN(c2ccc(S(=O)(=O)c3ccc(CNC(=O)c4cc5ccncc5o4)nc3)cn2)CC1` [Example 113, N-[[5-[[6-(4-methylpiperazin-1-yl)-1-pyridyl]sulfonyl]-2-pyridyl]methyl]furo[2,3-c]pyridine-2-carboxamide], the IC50 in the assay on A2780 cells (setting [3]) stood at 0.488 nM.

As to `O=C(NCc1ccc(S(=O)(=O)c2cccc(C(F)(F)F)c2)cn1)c1cc2ccncc2o1` [Example 22, Furo[2,3-c]pyridine-2-carboxylic acid [5-(3-trifluoromethyl-benzenesulfonyl)-pyridin-2-ylmethyl]-amide], the IC50 in the assay on A2780 cells (setting [1]) turned out to be 5.4 nM.

Turning to `O=C(NCc1ccc(S(=O)(=O)c2cc(F)cc(N3CCOCC3)c2)cn1)c1cc2ccncc2o1` [Example 88, Furo[2,3-c]pyridine-2-carboxylic acid [5-(3-fluoro-5-morpholin-4-yl-benzenesulfonyl)-pyridin-2-ylmethyl]-amide], the IC50 in the assay on A2780 cells (setting [1]) stood at 2 nM.

As to `CC(C)n1cc(S(=O)(=O)c2ccc(CNC(=O)c3cc4ccncc4o3)nc2)cn1` [Example 62, Furo[2,3-c]pyridine-2-carboxylic acid [5-(1-isopropyl-1H-pyrazole-4-sulfonyl)-pyridin-2-ylmethyl]-amide], the IC50 in the assay with A2780 cells (setting [1]) worked out at 11.6 nM.

`CCCn1cc(S(=O)(=O)c2ccc(CNC(=O)c3cc4ccncc4o3)nc2)cn1` [Example 61, Furo[2,3-c]pyridine-2-carboxylic acid [5-(1-propyl-1H-pyrazole-4-sulfonyl)-pyridin-2-ylmethyl]-amide]: the IC50 in the assay with A2780 cells (setting [2]) was 5.3 nM.

`O=C(NCc1ccc(S(=O)(=O)c2cc(F)cc(F)c2)cn1)c1cc2ccncc2o1` [Example 5, Furo[2,3-c]pyridine-2-carboxylic acid [5-(3,5-difluoro-benzenesulfonyl)-pyridin-2-ylmethyl]-amide]: in the assay on A2780 cells (setting [1]), the IC50 came to 5.2 nM.

For `O=C(NCc1ccc(S(=O)(=O)c2cccc(OC(F)(F)F)c2)cn1)c1cc2cnccc2[nH]1` [Example 21, 1H-Pyrrolo[3,2-c]pyridine-2-carboxylic acid [5-(3-trifluoromethoxy-benzenesulfonyl)-pyridin-2-ylmethyl]-amide], in the assay on A2780 cells (setting [1]), the IC50 was 10.2 nM.

`CCn1cc(S(=O)(=O)c2ccc(CNC(=O)c3cc4ccncc4o3)nc2)cn1` [Example 176, N-[[5-(l-ethylpyrazol-4-yl)sulfonyl-2-pyridyl]methyl]furo[2,3-c]pyridine-2-carboxamide]: the IC50 in the assay on A2780 cells (setting [1]) is 58.8 nM.

The values above are taken from US9458172B2, “Pyridinyl and pyrimidinyl sulfoxide and sulfone derivatives” (priority 2012, dated 2016).
